This note sets out measurements from patent publication US7906507B2, “Oxadiazoanthracene compounds for the treatment of diabetes” (TransTech Pharma, Inc., priority 2008, dated 2011).

The target of assay [1] is T1, cloned human GLP-1 receptor (Homo sapiens, UniProt P43220).
T1 construct: expressed in transfected cells; host or cells: CHO or HEK-293 cells
Kind of assay: Functional cell-based assay: cAMP functional assay. To be noted: for Emax: 0.5 h, percentage relative to maximal GLP-1-induced cAMP accumulation, na = not active in the assay, read-out: % activation. The procedure, abridged:
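Monolayer cells incubated 30 min at 37 °C with compounds (0.0001–100 μM) in IMDM containing 100 μM RO 20-1724 PDE inhibitor, 0.1% BSA and 2% DMSO. cAMP measured by HTRF.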

The target of the next assay is T2, human GLP-1 receptor (Homo sapiens, UniProt P43220).
T2 construct: expressed in transfected cells; host or cells: HEK-293 or CHO cells (membranes)
T2 sequence (P43220 24-463): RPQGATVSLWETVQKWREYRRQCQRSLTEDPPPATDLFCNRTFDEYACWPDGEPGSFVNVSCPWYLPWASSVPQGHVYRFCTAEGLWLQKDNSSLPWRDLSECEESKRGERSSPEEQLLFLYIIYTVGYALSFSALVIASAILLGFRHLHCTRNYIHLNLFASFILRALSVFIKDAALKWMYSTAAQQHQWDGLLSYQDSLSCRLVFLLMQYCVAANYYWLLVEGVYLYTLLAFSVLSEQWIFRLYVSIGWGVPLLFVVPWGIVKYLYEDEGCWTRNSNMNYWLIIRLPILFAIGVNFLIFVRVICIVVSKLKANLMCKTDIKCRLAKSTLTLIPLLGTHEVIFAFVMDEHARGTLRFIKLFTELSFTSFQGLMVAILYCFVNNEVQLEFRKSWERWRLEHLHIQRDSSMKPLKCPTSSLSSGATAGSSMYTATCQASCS
The assay can be described thus: Receptor binding assay: [125I]GLP-1 (aa 7-36) equilibrium radioligand binding. The note with it: membranes from HEK-293 or CHO cells expressing the human GLP-1 receptor; room temp 120 min. The method, then: Reactions were carried out in 96-well plates. Compound was diluted in 20% DMSO/water. The final assay concentration ranging from 0.1 nM to 100 uM in 2% final DMSO concentration was used. […] Plates were washed 5 times with cold 25 mM Tris-HCL, pH 7.5 containing 0.05% bovine serum albumin (BSA). Following filtration, 50 uL of Microscint PS (Packard part no. 6013631) was added, plates were sealed with TopSeal-A adhesive seals (Packard part no. 6005185). ^125I isotope bound to the Unifilter-96 GF/C plates was counted using a TopCount instrument (Packard).
Percent inhibition of [^125I] […] The IC50 values were calculated by fitting the data using parameters for a sigmoidal dose response, variable slope nonlinear regression (GraphPAD Prizm, San Diego, Calif.) according to the equation: Y=Bottom+(Top-Bottom)/(1+10^((Log EC50−X)*HillSlope)) wherein, X is the logarithm of concentration and Y is the response, and Y starts at Bottom and goes to Top with a sigmoid shape. This is identical to the four parameter logistic equation.

T1 sequence (P43220 24-463): as above

For the compound `N#Cc1ccc(-c2ccc(C[C@H](NC(=O)[C@@H]3Cc4cc5c(cc4CN3C(=O)c3ccccc3)OC(c3ccc(OCc4ccc(Cl)c(Cl)c4)cc3)C(=O)N5)C(=O)O)cc2)cc1` (stereo partly drawn) [Example 15, (S)-2-({(S)-6-Benzoyl-3-[4-(3,4-dichloro-benzyloxy)-phenyl]-2-oxo-2,3,5,6,7,8-hexahydro-1H-4-oxa-1,6-diaza-anthracene-7-carbonyl}-amino)-3-(4′-cyano-biphenyl-4-yl)-propionic acid], in assay [1], the EC50 was found to be 0.145 µM and the Emax came to 99.6%. Besides, the “% binding vs [125I]GLP-1” value at human GLP-1 receptor came out at 68%.

As for `N#Cc1ccc(-c2ccc(C[C@H](NC(=O)[C@@H]3Cc4cc5c(cc4CN3Cc3ccccn3)OC(c3ccc(OCc4ccc(Cl)c(Cl)c4)cc3)C(=O)N5)C(=O)O)cc2)cc1` (stereo partly drawn) [Example 39, (S)-3-(4′-Cyano-biphenyl-4-yl)-2-({(S)-3-[4-(3,4-dichloro-benzyloxy)-phenyl]-2-oxo-6-pyridin-2-ylmethyl-2,3,5,6,7,8-hexahydro-1H-4-oxa-1,6-diaza-anthracene-7-carbonyl}-amino)-propionic acid], in assay [1], it took 0.13 µM to reach a half-maximal effect (EC50) and the Emax worked out at 56%. Further, on human GLP-1 receptor, the “% binding vs [125I]GLP-1” value was 60%.

Regarding `CC[C@H](c1ccccc1)N1Cc2cc3c(cc2C[C@H]1C(=O)N[C@@H](Cc1ccc(-c2ccc(C#N)cc2)cc1)C(=O)O)N(C)C(=O)[C@H](c1ccc(OCc2ccc(Cl)c(Cl)c2)cc1)O3` [Example 88, (S)-3-(4′-Cyano-biphenyl-4-yl)-2-{[(3S,7S)-3-[4-(3,4-dichloro-benzyloxy)-phenyl]-1-methyl-2-oxo-6-((R)-1-phenyl-propyl)-2,3,5,6,7,8-hexahydro-1H-4-oxa-1,6-diaza-anthracene-7-carbonyl]-amino}-propionic acid], at human GLP-1 receptor, the “% binding vs [125I]GLP-1” value is 60%.

With `CC[C@H](c1ccccc1)N1Cc2cc3c(cc2C[C@H]1C(=O)N[C@@H](Cc1ccc(-c2ccc(C#N)cc2)cc1)C(=O)O)N(C)C(=O)[C@@H](c1ccc(OCc2ccc(Cl)c(Cl)c2)cc1)O3` [Example 89], the “% binding vs [125I]GLP-1” value on human GLP-1 receptor was 44%.

As for `CC[C@@H](c1ccccc1)N1Cc2cc3c(cc2C[C@H]1C(=O)N[C@@H](Cc1ccc(-c2ccc(Cl)cc2)cc1)C(=O)O)N(C)C(=O)[C@H](c1ccc(OCc2ccc(Cl)c(Cl)c2)cc1)O3` [Example 93, (S)-3-(4′-Chloro-biphenyl-4-yl)-2-{[(3S,7S)-3-[4-(3,4-dichloro-benzyloxy)-phenyl]-1-methyl-2-oxo-6-((S)-1-phenyl-propyl)-2,3,5,6,7,8-hexahydro-1H-4-oxa-1,6-diaza-anthracene-7-carbonyl]-amino}-propionic acid], in assay [1], a half-maximal effect (EC50) was put at 0.138 µM and the Emax was 31%.

In the case of `CC[C@@H](c1ccccc1)N1Cc2cc3c(cc2C[C@H]1C(=O)N[C@@H](Cc1ccc(-c2ccc(OC)cc2)cc1)C(=O)O)N(C)C(=O)[C@H](c1ccc(OCc2ccc(Cl)c(Cl)c2)cc1)O3` [Example 94, (S)-2-{[(3S,7S)-3-[4-(3,4-Dichloro-benzyloxy)-phenyl]-1-methyl-2-oxo-6-((S)-1-phenyl-propyl)-2,3,5,6,7,8-hexahydro-1H-4-oxa-1,6-diaza-anthracene-7-carbonyl]-amino}-3-(4′-methoxy-biphenyl-4-yl)-propionic acid], in assay [1], the EC50 turned out to be 0.424 µM and the Emax came to 41%.

For `CC[C@@H](c1ccccc1)N1Cc2cc3c(cc2C[C@H]1C(=O)N[C@@H](Cc1ccc(-c2ccc(F)cc2)cc1)C(=O)O)N(C)C(=O)[C@H](c1ccc(OCc2ccc(Cl)c(Cl)c2)cc1)O3` [Example 95, (S)-2-{[(3S,7S)-3-[4-(3,4-Dichloro-benzyloxy)-phenyl]-1-methyl-2-oxo-6-((S)-1-phenyl-propyl)-2,3,5,6,7,8-hexahydro-1H-4-oxa-1,6-diaza-anthracene-7-carbonyl]-amino}-3-(4′-fluoro-biphenyl-4-yl)-propionic acid], in assay [1], a half-maximal response (EC50) required 0.364 µM and the Emax was 49%. In addition, the “% binding vs [125I]GLP-1” value at human GLP-1 receptor amounted to 65%.

In the case of `Cc1noc(C)c1S(=O)(=O)N1Cc2cc3c(cc2C[C@H]1C(=O)N[C@@H](Cc1ccc(-c2ccc(C#N)cc2)cc1)C(=O)O)N(C)C(=O)C(c1ccc(OCc2ccc(Cl)c(Cl)c2)cc1)O3` (stereo partly drawn) [Example 96, (S)-3-(4′-Cyano-biphenyl-4-yl)-2-{[(S)-3-[4-(3,4-dichloro-benzyloxy)-phenyl]-6-(3,5-dimethyl-isoxazole-4-sulfonyl)-1-methyl-2-oxo-2,3,5,6,7,8-hexahydro-1H-4-oxa-1,6-diaza-anthracene-7-carbonyl]-amino}-propionic acid], in assay [1], the 50% effective concentration (EC50) was determined as 0.362 µM and the Emax was 8.5%.

`CC[C@@H](c1ccccc1)N1Cc2cc3c(cc2C[C@H]1C(=O)N[C@H](Cc1ccc(-c2ccc(C#N)cc2)cc1)C(=O)O)N(C)C(=O)[C@@H](c1ccc(OCc2ccc(Cl)c(Cl)c2)cc1)O3` [Example 98, (R)-3-(4′-Cyano-biphenyl-4-yl)-2-{[(3R,7S)-3-[4-(3,4-dichloro-benzyloxy)-phenyl]-1-methyl-2-oxo-6-((S)-1-phenyl-propyl)-2,3,5,6,7,8-hexahydro-1H-4-oxa-1,6-diaza-anthracene-7-carbonyl]-amino}-propionic acid]: in assay [1], it took 0.626 µM to reach a half-maximal effect (EC50) and the Emax is 42%.

As for `O=C1Nc2cc3c(cc2OC1c1ccc(OCc2ccc(Cl)c(Cl)c2)cc1)CN(C(=O)c1ccccc1)[C@H](C(=O)N[C@@H](Cc1ccc(Oc2ccncc2)cc1)C(=O)O)C3` (stereo partly drawn) [Example 99, (S)-2-({(S)-6-Benzoyl-3-[4-(3,4-dichloro-benzyloxy)-phenyl]-2-oxo-2,3,5,6,7,8-hexahydro-1H-4-oxa-1,6-diaza-anthracene-7-carbonyl}-amino)-3-[4-(pyridin-4-yloxy)-phenyl]-propionic acid], in assay [1], a half-maximal response (EC50) required 1 µM and the Emax was found to be 28%.
